Experimental findings from BindingDB's records for doi:10.1021/acs.biochem.5b01325 (University of Texas At San Antonio, 2016) are described below.

The target in the assay is T1, (S)-6-hydroxynicotine oxidase (Paenarthrobacter nicotinovorans, UniProt O86101).
T1 sequence (O86101 whole entry): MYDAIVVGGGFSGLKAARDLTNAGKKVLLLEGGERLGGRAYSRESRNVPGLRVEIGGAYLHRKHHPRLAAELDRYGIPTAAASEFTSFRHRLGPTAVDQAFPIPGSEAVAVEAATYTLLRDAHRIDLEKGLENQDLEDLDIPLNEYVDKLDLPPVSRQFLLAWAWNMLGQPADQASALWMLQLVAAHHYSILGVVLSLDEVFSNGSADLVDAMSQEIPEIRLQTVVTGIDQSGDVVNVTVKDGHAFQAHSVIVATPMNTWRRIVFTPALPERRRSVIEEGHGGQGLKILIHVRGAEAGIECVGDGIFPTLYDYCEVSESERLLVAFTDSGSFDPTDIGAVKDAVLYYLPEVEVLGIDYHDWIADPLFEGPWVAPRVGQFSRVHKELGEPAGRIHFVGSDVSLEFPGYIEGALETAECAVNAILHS
In words: Steady-State Kinetics. The conditions noted are these: pH 8. How it is done: Initial rates of amine oxidation were routinely measured by monitoring oxygen consumption in 0.1 M Hepes (pH 8.0) and 0.1 M NaCl at 25 °C using an oxygen electrode (model 5300A, Yellow Springs Instruments, Yellow Springs, OH). With (R,S)-6-hydroxynicotine and (S)-6-hydroxynornicotine, the concentration of enzyme was typically 0.1 μM; this was increased to 4 μM for (S)-nicotine and (R,S)-4-(1-methyl pyrrolidine-2-yl)phenol. The concentration of oxygen was varied by bubbling the desired concentration of oxygen (62 μM to 1.25 mM) into the oxygen electrode cell for ∼10 min.

The structures appear in SMILES notation.

Consider `CN1CCC[C@H]1c1ccc(=O)[nH]c1` [(S)-6-hydroxynicotine], for which the Kd (in general, the free concentration of one partner at which half of the binding sites on the other are occupied at equilibrium, for simple one-to-one binding) is 100 µM. The figure for `O=c1ccc([C@@H]2CCCN2)c[nH]1` [(S)-6-hydroxynornicotine] is 300 µM; for `CN1CCC[C@H]1c1ccc(O)cc1` [(S)-4-(1-methylpyrrolidine-2-yl)phenol] it is 2000 µM.
